Paper PMC7076174 (Frontiers in Oncology, 2020)

Assays:
GSK3α = tested on: GSK3α; set-up: method as in PMID 23305709; details: cited from earlier work
GSKβ = tested on: GSKβ; set-up: method as in PMID 23305709; details: cited from earlier work
[1] = tested on: CD34+ CD38– AML stem cell population; details: tretinoin 0.5 μM, 6 days; in three samples
From the text: In order to study the separate effects of GSK3 inhibition or tretinoin on AML stem cells, we used previously obtained cryopreserved blood samples from the Eastern Cooperative Oncology Group (ECOG) tumor repository of newly diagnosed and untreated AML patients (independent of this trial) to conduct in vitro studies. […] Cryopreserved cells were thawed and cultured in RPMI 1640 media (Hyclone) containing 10% fetal bovine serum (Sigma-Aldrich, St. Louis, MO, USA) and 1% final concentration penicillin and streptomycin. Amphotericin B (0.5 μg/ml) and ciprofloxacin (10 μg/ml) were added to help eliminate fungal and mycoplasma contamination in the cell culture. Cells were treated with SB415285 (10 μM) obtained from Tocris (Bristol, UK), a laboratory-grade GSK3 inhibitor which competitively binds to the ATP binding site of GSK3 ([23]), and tretinoin (0.5 μM). […] After 6 days, immunophenotyping for the CD34+ CD38– AML stem cell population was performed by flow cytometry.

GSK3 [2] = details: cited from earlier work
[3] = Procedure: Lithium carbonate (lithium) 300 mg was administered orally three times a day (or two times daily for patients age ≥65 years) starting on day - 3 prior to cycle 1 and on day 1 of all subsequent cycles consisting of 28 days (Figure 1). The “lead-in” period prior to cycle 1 was designed to allow for correlative studies to investigate the effects of lithium on leukemic cell GSK3 activity and to ensure achievement of adequate serum lithium concentrations prior to tretinoin exposure. The target serum lithium concentration was the laboratory-defined therapeutic range of 0.6–1.0 mmol/L based on toxicity in humans for treatment of mood disorders. Dose adjustments were made based on the serum lithium concentration (Supplementary Figure 1). Dosing of tretinoin followed a “3+3” study design with three patients sequentially enrolled at each dose level ([13]). Tretinoin was administered orally at a dose of 22.5 mg/m^2/day (dose level 1) or 45 mg/m^2/day (dose level 2) in two divided doses, from days 1 to 7 and from days 15 to 21 of a 28-day cycle.
GSK3 [4] = details: six patients with evaluable samples; CD34+ and/or CD117+ cells
Method: Blood samples were collected at baseline, days 1, 8, and 30 and at the end of the study period. Specimens were processed only if ≥5% leukemic cells were present in the blood as assessed using morphologic criteria. […] Bone marrow was collected at baseline and end of study. Immunophenotyping was performed by multi-parameter flow cytometry using fluorochrome-labeled antibodies to CD11b, CD14, and CD15 as markers for monocytic and/or granulocytic differentiation ([19]–[22]). The stained samples were run on a BD Biosciences LSRII (San Jose, CA, USA) flow cytometer. Cells were concurrently stained for CD34, CD117, and CD38 for identification of the leukemic blast and stem cell populations (CD34+ CD38–). […] Phosphorylated Serine-9 GSK3β antibody was obtained from Cell Signaling Technologies (Beverly, MA, USA).

O=C1NC(=O)C(c2cnc3ccccn23)=C1c1cn2c3c(cc(F)cc13)CN(C(=O)N1CCCCC1)CC2 [LY2090314]
IC50 (GSK3α): 1.5 nM
IC50 (GSKβ): 0.9 nM

CC1=C(/C=C/C(C)=C/C=C/C(C)=C/C(=O)O)C(C)(C)CCC1 [tretinoin]
Reduction of the CD34+ CD38– population, tretinoin alone vs combination with SB415285 [1]: comparable reduction of the CD34+ CD38– population

O=C([O-])[O-].[Li+].[Li+] [lithium, Lithium carbonate]
Lithium threshold concentration necessary in vivo to significantly inhibit GSK3 (GSK3 [2]): ~ 0.8 mmol/L
Target serum lithium concentration (0.6–1.0 mmol/L) achieved ([3]; oral lithium carbonate 300 mg 2–3 times daily, dose adjusted): achieved at least once in all nine patients
Serum lithium concentration at admission ([3]; patient with delirium (DLT), third week of treatment, dose level 1): 0.28 mmol/L
Median increase in pGSK3β, change in mean fluorescence intensity (MFI) from baseline (GSK3 [4]): 1,093 (range, 111–1,738)
